{"source": "ChEMBL document CHEMBL1151757", "about": "“Synthesis, radiosynthesis, and biological evaluation of fluorine-18-labeled 2beta-carbo(fluoroalkoxy)-3beta-(3'-((Z)-2-haloethenyl)phenyl)nortropanes: candidate radioligands for in vivo imaging of the serotonin transporter with positron emission tomography” (J Med Chem, 2008)", "data": [{"test_system": "not listed separately", "experiment": "Ratio of drug uptake in medulla to cerebellum in anesthetized cynomolgus monkey after 0.5 mins postinjection", "format": "ADME, organism-based, Macaca fascicularis", "conditions": "in vivo", "values": [{"smiles": "O=C(OCCC[18F])C1C2CCC(CC1c1cccc(/C=C\\Br)c1)N2", "note": "(stereo not given)", "Ratio": 2.4}]}, {"test_system": "not listed separately", "experiment": "Ratio of drug uptake in midbrain to cerebellum in anesthetized cynomolgus monkey after 145 mins postinjection", "format": "ADME, organism-based, Macaca fascicularis", "conditions": "in vivo", "values": [{"smiles": "O=C(OCCC[18F])C1C2CCC(CC1c1cccc(/C=C\\Br)c1)N2", "note": "(stereo not given)", "Ratio": 1.8}]}, {"test_system": "not listed separately", "experiment": "Drug uptake in anesthetized cynomolgus monkey brain cerebellum after 165 mins postinjection", "format": "ADME, organism-based, Macaca fascicularis", "conditions": "in vivo, 2.75 h", "values": [{"smiles": "O=C(OCCC[18F])C1C2CCC(CC1c1cccc(/C=C\\Br)c1)N2", "note": "(stereo not given)", "Drug uptake": 2.57}]}, {"test_system": "Midbrain", "experiment": "Drug uptake in anesthetized cynomolgus monkey brain midbrain after 225 mins postinjection", "format": "ADME, organism-based, Macaca fascicularis", "conditions": "in vivo, 3.75 h", "values": [{"smiles": "O=C(OCCC[18F])C1C2CCC(CC1c1cccc(/C=C\\Br)c1)N2", "note": "(stereo not given)", "Drug uptake": 4.29}]}, {"test_system": "Putamen", "experiment": "Drug uptake in anesthetized cynomolgus monkey brain putamen after 215 mins postinjection", "format": "ADME, organism-based, Macaca fascicularis", "conditions": "in vivo", "values": [{"smiles": "O=C(OCCC[18F])C1C2CCC(CC1c1cccc(/C=C\\Br)c1)N2", "note": "(stereo not given)", "Drug uptake": 3.51}]}, {"test_system": "not listed separately", "experiment": "Ratio of drug uptake in caudate to cerebellum in anesthetized cynomolgus monkey after 9.5 mins postinjection", "format": "ADME, organism-based, Macaca fascicularis", "conditions": "in vivo", "values": [{"smiles": "O=C(OCCC[18F])C1C2CCC(CC1c1cccc(/C=C\\Br)c1)N2", "note": "(stereo not given)", "Ratio": 0.7}]}, {"test_system": "not listed separately", "experiment": "Ratio of drug uptake in putamen to cerebellum in anesthetized cynomolgus monkey after 215 mins postinjection", "format": "ADME, organism-based, Macaca fascicularis", "conditions": "in vivo", "values": [{"smiles": "O=C(OCCC[18F])C1C2CCC(CC1c1cccc(/C=C\\Br)c1)N2", "note": "(stereo not given)", "Ratio": 1.7}]}, {"test_system": "Midbrain", "experiment": "Drug uptake in anesthetized cynomolgus monkey brain midbrain after 95 mins postinjection", "format": "ADME, organism-based, Macaca fascicularis", "set-up": "unit not given here", "conditions": "in vivo", "values": [{"smiles": "O=C(OCCC[18F])C1C2CCC(CC1c1cccc(/C=C\\Br)c1)N2", "note": "(stereo not given)", "Drug uptake": 5.79}]}, {"test_system": "Caudate", "experiment": "Drug uptake in anesthetized cynomolgus monkey brain caudate after 35 mins postinjection", "format": "ADME, organism-based, Macaca fascicularis, Caudate nucleus", "conditions": "in vivo", "values": [{"smiles": "O=C(OCCC[18F])C1C2CCC(CC1c1cccc(/C=C\\Br)c1)N2", "note": "(stereo not given)", "Drug uptake": 5.13}]}, {"test_system": "not listed separately", "experiment": "Drug uptake in anesthetized cynomolgus monkey brain occipital lobe after 235 mins postinjection", "format": "ADME, organism-based, Macaca fascicularis", "conditions": "in vivo", "values": [{"smiles": "O=C(OCCC[18F])C1C2CCC(CC1c1cccc(/C=C\\Br)c1)N2", "note": "(stereo not given)", "Drug uptake": 2.53}]}, {"test_system": "not listed separately", "experiment": "Drug uptake in anesthetized cynomolgus monkey brain frontal lobe after 2.5 mins postinjection", "format": "ADME, organism-based, Macaca fascicularis", "conditions": "in vivo", "values": [{"smiles": "O=C(OCCC[18F])C1C2CCC(CC1c1cccc(/C=C\\Br)c1)N2", "note": "(stereo not given)", "Drug uptake": 0.79}]}, {"test_system": "not listed separately", "experiment": "Ratio of drug uptake in midbrain to cerebellum in anesthetized cynomolgus monkey after 215 mins postinjection", "format": "ADME, organism-based, Macaca fascicularis", "conditions": "in vivo", "values": [{"smiles": "O=C(OCCC[18F])C1C2CCC(CC1c1cccc(/C=C\\Br)c1)N2", "note": "(stereo not given)", "Ratio": 2.2}]}, {"test_system": "not listed separately", "experiment": "Drug uptake in anesthetized cynomolgus monkey brain frontal lobe after 115 mins postinjection", "format": "ADME, organism-based, Macaca fascicularis", "conditions": "in vivo", "values": [{"smiles": "O=C(OCCC[18F])C1C2CCC(CC1c1cccc(/C=C\\Br)c1)N2", "note": "(stereo not given)", "Drug uptake": 3.2}]}, {"test_system": "Putamen", "experiment": "Drug uptake in anesthetized cynomolgus monkey brain putamen after 2.5 mins postinjection", "format": "ADME, organism-based, Macaca fascicularis", "conditions": "in vivo", "values": [{"smiles": "O=C(OCCC[18F])C1C2CCC(CC1c1cccc(/C=C\\Br)c1)N2", "note": "(stereo not given)", "Drug uptake": 1.34}]}, {"test_system": "not listed separately", "experiment": "Drug uptake in anesthetized cynomolgus monkey brain occipital lobe after 215 mins postinjection", "format": "ADME, organism-based, Macaca fascicularis", "conditions": "in vivo", "values": [{"smiles": "O=C(OCCC[18F])C1C2CCC(CC1c1cccc(/C=C\\Br)c1)N2", "note": "(stereo not given)", "Drug uptake": 2.7}]}, {"test_system": "Pons", "experiment": "Drug uptake in anesthetized cynomolgus monkey brain pons after 85 mins postinjection", "format": "ADME, organism-based, Macaca fascicularis", "conditions": "in vivo", "values": [{"smiles": "O=C(OCCC[18F])C1C2CCC(CC1c1cccc(/C=C\\Br)c1)N2", "note": "(stereo not given)", "Drug uptake": 4.59}]}, {"test_system": "not listed separately", "experiment": "Drug uptake in anesthetized cynomolgus monkey brain occipital lobe after 15.5 mins postinjection", "format": "ADME, organism-based, Macaca fascicularis", "conditions": "in vivo", "values": [{"smiles": "O=C(OCCC[18F])C1C2CCC(CC1c1cccc(/C=C\\Br)c1)N2", "note": "(stereo not given)", "Drug uptake": 4.29}]}, {"test_system": "Putamen", "experiment": "Drug uptake in anesthetized cynomolgus monkey brain putamen after 85 mins postinjection", "format": "ADME, organism-based, Macaca fascicularis", "set-up": "unit not given here", "conditions": "in vivo", "values": [{"smiles": "O=C(OCCC[18F])C1C2CCC(CC1c1cccc(/C=C\\Br)c1)N2", "note": "(stereo not given)", "Drug uptake": 5.54}]}, {"test_system": "not listed separately", "experiment": "Drug uptake in anesthetized cynomolgus monkey brain cerebellum after 95 mins postinjection", "format": "ADME, organism-based, Macaca fascicularis", "conditions": "in vivo", "values": [{"smiles": "O=C(OCCC[18F])C1C2CCC(CC1c1cccc(/C=C\\Br)c1)N2", "note": "(stereo not given)", "Drug uptake": 3.81}]}, {"test_system": "not listed separately", "experiment": "Drug uptake in anesthetized cynomolgus monkey brain occipital lobe after 105 mins postinjection", "format": "ADME, organism-based, Macaca fascicularis", "conditions": "in vivo, 1.75 h", "values": [{"smiles": "O=C(OCCC[18F])C1C2CCC(CC1c1cccc(/C=C\\Br)c1)N2", "note": "(stereo not given)", "Drug uptake": 3.91}]}, {"test_system": "not listed separately", "experiment": "Drug uptake in anesthetized cynomolgus monkey brain occipital lobe after 95 mins postinjection", "format": "ADME, organism-based, Macaca fascicularis", "conditions": "in vivo", "values": [{"smiles": "O=C(OCCC[18F])C1C2CCC(CC1c1cccc(/C=C\\Br)c1)N2", "note": "(stereo not given)", "Drug uptake": 4.16}]}, {"test_system": "not listed separately", "experiment": "Drug uptake in anesthetized cynomolgus monkey brain frontal lobe after 12.5 mins postinjection", "format": "ADME, organism-based, Macaca fascicularis", "conditions": "in vivo", "values": [{"smiles": "O=C(OCCC[18F])C1C2CCC(CC1c1cccc(/C=C\\Br)c1)N2", "note": "(stereo not given)", "Drug uptake": 3.5}]}, {"test_system": "not listed separately", "experiment": "Drug uptake in anesthetized cynomolgus monkey brain occipital lobe after 27.5 mins postinjection", "format": "ADME, organism-based, Macaca fascicularis", "conditions": "in vivo", "values": [{"smiles": "O=C(OCCC[18F])C1C2CCC(CC1c1cccc(/C=C\\Br)c1)N2", "note": "(stereo not given)", "Drug uptake": 4.71}]}, {"test_system": "Putamen", "experiment": "Drug uptake in anesthetized cynomolgus monkey brain putamen after 75 mins postinjection", "format": "ADME, organism-based, Macaca fascicularis", "set-up": "unit not given here", "conditions": "in vivo, 1.25 h", "values": [{"smiles": "O=C(OCCC[18F])C1C2CCC(CC1c1cccc(/C=C\\Br)c1)N2", "note": "(stereo not given)", "Drug uptake": 5.63}]}, {"test_system": "Caudate", "experiment": "Drug uptake in anesthetized cynomolgus monkey brain caudate after 165 mins postinjection", "format": "ADME, organism-based, Macaca fascicularis, Caudate nucleus", "conditions": "in vivo, 2.75 h", "values": [{"smiles": "O=C(OCCC[18F])C1C2CCC(CC1c1cccc(/C=C\\Br)c1)N2", "note": "(stereo not given)", "Drug uptake": 4.01}]}, {"test_system": "not listed separately", "experiment": "Drug uptake in anesthetized cynomolgus monkey brain cerebellum after 27.5 mins postinjection", "format": "ADME, organism-based, Macaca fascicularis", "conditions": "in vivo", "values": [{"smiles": "O=C(OCCC[18F])C1C2CCC(CC1c1cccc(/C=C\\Br)c1)N2", "note": "(stereo not given)", "Drug uptake": 5.61}]}, {"test_system": "Putamen", "experiment": "Drug uptake in anesthetized cynomolgus monkey brain putamen after 125 mins postinjection", "format": "ADME, organism-based, Macaca fascicularis", "conditions": "in vivo", "values": [{"smiles": "O=C(OCCC[18F])C1C2CCC(CC1c1cccc(/C=C\\Br)c1)N2", "note": "(stereo not given)", "Drug uptake": 4.82}]}, {"test_system": "not listed separately", "experiment": "Ratio of drug uptake in caudate to cerebellum in anesthetized cynomolgus monkey after 18.5 mins postinjection", "format": "ADME, organism-based, Macaca fascicularis", "conditions": "in vivo", "values": [{"smiles": "O=C(OCCC[18F])C1C2CCC(CC1c1cccc(/C=C\\Br)c1)N2", "note": "(stereo not given)", "Ratio": 0.7}]}, {"test_system": "not listed separately", "experiment": "Ratio of drug uptake in medulla to cerebellum in anesthetized cynomolgus monkey after 155 mins postinjection", "format": "ADME, organism-based, Macaca fascicularis", "conditions": "in vivo", "values": [{"smiles": "O=C(OCCC[18F])C1C2CCC(CC1c1cccc(/C=C\\Br)c1)N2", "note": "(stereo not given)", "Ratio": 1.7}]}, {"test_system": "not listed separately", "experiment": "Ratio of drug uptake in frontal lobe to cerebellum in anesthetized cynomolgus monkey after 3.5 mins postinjection", "format": "ADME, organism-based, Macaca fascicularis", "conditions": "in vivo", "values": [{"smiles": "O=C(OCCC[18F])C1C2CCC(CC1c1cccc(/C=C\\Br)c1)N2", "note": "(stereo not given)", "Ratio": 0.5}]}]}
